Source: article PMC12931196, “Vm–MSI: a Vancomycin–Antimicrobial Peptide Conjugate Combating Resistant Bacteria and Broadening the Antimicrobial Spectrum” (Advanced Science, 2025)
≈ marks a conversion by molar mass, not a printed value. Where “and” joins values, the source holds several entries; their conditions need not be identical. Equal values may be shown once.

Legend:
[1] = tested on: 29 bacterial strains (11 Gram‐positive, 18 Gram‐negative); assay: GM of the MICs across the 29 bacterial strains; assay type: cell-based; details: read-out: GM: Geometric mean of the MICs across the 29 bacterial strains
Procedure: (§1) The 2 fold broth microdilution method was performed following previously established protocols.^[ [65], [66] ^] A total of 29 strains of human pathogenic microorganisms (11 Gram‐positive and 18 Gram‐negative) were included in the assay. Standard strains were maintained in our laboratory, and clinical isolates were obtained from the Fourth Affiliated Hospital of Soochow University. […] Gradient dilutions of the drugs (vancomycin, AMPs, and vancomycin‐AMP conjugates) were prepared in 96‐well plates, with 50 µL of each drug solution added per well. For the vancomycin and AMP mixture, 25 µL of vancomycin was combined with 25 µL of AMP at the corresponding monomer gradient concentration, resulting in a total volume of 50 µL. […] Following incubation, bacterial growth was assessed by measuring absorbance at 600 nm. The MIC was defined as the lowest concentration at which no bacterial growth was detected.

[2] = tested on: VRSA 52; assay: Live/dead bacteria staining (PI/SYTO9, CLSM); details: 4 µM, 1 h
[3] = tested on: E. faecalis 2; assay: microbe, parasite or virus in culture; details: Enterococcus faecalis, 2, 18 h
[4] = tested on: MRSA ATCC43300; assay: microbe, parasite or virus in culture; details: Staphylococcus aureus, 18 h
[5] = tested on: VRSA 52; assay: microbe, parasite or virus in culture; details: Staphylococcus aureus, 18 h
[6] = tested on: MDR K. pneumoniae 2; assay: microbe, parasite or virus in culture; details: Klebsiella pneumoniae, 18 h
[7] = tested on: multidrug‐resistant A. baumannii; assay: Mouse lung infection model; assay type: in vivo, mice; details: single i.p. 5 mg kg^−1 at 0.5 h post‐infection; lung CFU after one day
Procedure: The experimental methods employed in this study were based on previously published literature.^[ [64] ^] 6–8 weeks old female mice weighing 18–20 g were selected for the study, and colonization was performed by administering 50 µL of a multidrug‐resistant A. baumannii strain (at a concentration of 1 × 10^7 CFU/mL) via tracheal intubation into the lungs of the mice for a duration of 0.5 h. After this period, an intraperitoneal injection of the drug at a dosage of 5 mg kg^−1 was administered. PBS served as a negative control, while ciprofloxacin was used as a positive control. After 24 h, the mice were euthanized, and their lung tissues were excised, homogenized, and diluted 10000 fold for colony counting. The lung tissue homogenate was then centrifuged to obtain the supernatant, which was further diluted 5 fold. The expression levels of inflammatory factors IL‐6 and TNF‐α in the supernatant were measured using an ELISA assay (ThermoFisher, US).

[8] = tested on: S. aureus 15192; assay: microbe, parasite or virus in culture; details: Staphylococcus aureus, 15192, 18 h
[9] = tested on: E. coli ATCC25922; assay: microbe, parasite or virus in culture; details: Escherichia coli, ATCC25922, 18 h
[10] = tested on: VRSA 52, E. coli ATCC25922, and MDR P. aeruginosa 5; assay: Crystalline violet biofilm inhibition and eradication assays; assay type: cell-based; details: 0.5-8 µM; three strains
Procedure: The mixture was incubated in a 96‐well plate for 48 h. Subsequent steps, including washing, fixation, staining, and OD measurement, were performed as described in the biofilm eradication assay.

[11] = tested on: 13 bacterial strains; assay: GM of MIC from tested bacterial strains (Table S2); assay type: cell-based; details: 13 strains of Table S2; read-out: GM: geometric mean of MIC from tested bacterial strains
Procedure: as §1

[12] = tested on: MDR A. baumannii 1; assay: microbe, parasite or virus in culture; details: Acinetobacter baumannii, 18 h
[13] = tested on: S. typhimurium ATCC14028; assay: microbe, parasite or virus in culture; details: Salmonella enterica, 18 h
[14] = tested on: E. coli ATCC25922 biofilms; details: 8 µM, 4 h, SYTO9/PI CLSM
[15] = tested on: MDR K. pneumoniae 4; assay: microbe, parasite or virus in culture; details: Klebsiella pneumoniae, 18 h
[16] = tested on: P. aeruginosa 60357; assay: MIC, 2 fold broth microdilution; assay type: cell-based; details: Pseudomonas aeruginosa, MH broth, 37 °C, 18 h, OD600, read-out: MIC
Procedure: as §1

[17] = tested on: P. aeruginosa 52097; assay: MIC, 2 fold broth microdilution; assay type: cell-based; details: Pseudomonas aeruginosa, MH broth, 37 °C, 18 h, OD600, read-out: MIC
Procedure: as §1

[18] = tested on: S. flexneri ATCC12022; assay: MIC, 2 fold broth microdilution; assay type: cell-based; details: Shigella flexneri, MH broth, 37 °C, 18 h, OD600, read-out: MIC
Procedure: as §1

[19] = tested on: B. cereus CMCC63301; assay: MIC, 2 fold broth microdilution; assay type: cell-based; details: Bacillus cereus, MH broth, 37 °C, 18 h, OD600, read-out: MIC
Procedure: as §1

[20] = tested on: S. flexneri CMCC51571; assay: MIC, 2 fold broth microdilution; assay type: cell-based; details: Shigella flexneri, MH broth, 37 °C, 18 h, OD600, read-out: MIC
Procedure: as §1

[21] = tested on: S. typhimurium CICC21483; assay: MIC, 2 fold broth microdilution; assay type: cell-based; details: Salmonella enterica, MH broth, 37 °C, 18 h, OD600, read-out: MIC
Procedure: as §1

[22] = tested on: P. aeruginosa CMCC10104; assay: MIC, 2 fold broth microdilution; assay type: cell-based; details: Pseudomonas aeruginosa, MH broth, 37 °C, 18 h, OD600, read-out: MIC
Procedure: as §1

[23] = tested on: V. parahemolyticus ATCC17802; assay: MIC, 2 fold broth microdilution; assay type: cell-based; details: MH broth, 37 °C, 18 h, OD600, read-out: MIC
Procedure: as §1

[24] = tested on: E. coli ATCC25922; assay: Bacterial killing kinetics; details: 4 µM, sampled 0-180 min
[25] = tested on: E. coli ATCC25922; assay: Live/dead bacteria staining (PI/SYTO9, CLSM); assay type: cell-based; details: 4 µM, 1 h
[26] = tested on: S. aureus CMCC26003; assay: microbe, parasite or virus in culture; details: Staphylococcus aureus, CMCC26003, 18 h
[27] = tested on: MDR P. aeruginosa 5; assay: microbe, parasite or virus in culture; details: Pseudomonas aeruginosa, 18 h
[28] = tested on: VRSA 11; assay: microbe, parasite or virus in culture; details: Staphylococcus aureus, 18 h

Question: For `CN[C@H](CC(C)C)C(=O)N[C@H]1C(=O)N[C@@H](CC(N)=O)C(=O)N[C@H]2C(=O)N[C@H]3C(=O)N[C@H](C(=O)N[C@H](C(=O)O)c4cc(O)cc(O)c4-c4cc3ccc4O)[C@H](O)c3ccc(c(Cl)c3)Oc3cc2cc(c3O[C@@H]2O[C@H](CO)[C@@H](O)[C@H](O)[C@H]2O[C@H]2C[C@](C)(N)[C@H](O)[C@H](C)O2)Oc2ccc(cc2Cl)[C@H]1O` [Vm, vancomycin], which MIC [1] is on record?
Answer: 55.1 µM (≈ 79.8 µg/mL)

Question: What about the bacterial mortality [2] of the same compound?
Answer: 2%

Question: And the MIC [3]?
Answer: > 67.3 µM

Question: What about the MIC [4] of the same compound?
Answer: 3.16 µM and 4.69 µg/mL

Question: And the MIC [5]?
Answer: > 67.3 µM and > 100 µg/mL

Question: And the MIC [6]?
Answer: > 67.3 µM

Question: What about the “lung‐colonizing bacteria eliminated” value [7] of the same compound?
Answer: no antibacterial activity

Question: And the MIC [8]?
Answer: 0.4 µM and 0.59 µg/mL

Question: And the MIC [9]?
Answer: > 67.3 µM and > 100 µg/mL

Question: And the “anti‐biofilm activity (inhibition and eradication)” value [10]?
Answer: no noticeable anti‐biofilm activity

Question: And the MIC [11]?
Answer: 70 µg/mL (≈ 48.3 µM)

Question: What about the MIC [12] of the same compound?
Answer: > 67.3 µM

Question: And the MIC [13]?
Answer: > 67.3 µM and > 100 µg/mL

Question: And the “killing at the bottom of the biofilm” value [14]?
Answer: 20%

Question: And the “killing at the surface of the biofilm” value [14]?
Answer: 60%

Question: What about the MIC [15] of the same compound?
Answer: > 67.3 µM

Question: What about the MIC [16] of the same compound?
Answer: > 67.3 µM

Question: And the MIC [17]?
Answer: > 67.3 µM

Question: What about the MIC [18] of the same compound?
Answer: 50.5 µM (≈ 73.2 µg/mL)

Question: And the MIC [19]?
Answer: 50.5 µM (≈ 73.2 µg/mL)

Question: What about the MIC [20] of the same compound?
Answer: > 67.3 µM

Question: And the MIC [21]?
Answer: > 67.3 µM

Question: And the MIC [22]?
Answer: > 67.3 µM

Question: What about the MIC [23] of the same compound?
Answer: 50.5 µM (≈ 73.2 µg/mL)

Question: And the “time to elimination of all bacteria” value [24]?
Answer: no bactericidal activity

Question: And the “bacteria killed (mortality)” value [25]?
Answer: 6%

Question: And the MIC [26]?
Answer: 0.4 µM and 0.59 µg/mL

Question: What about the MIC [27] of the same compound?
Answer: > 67.3 µM

Question: And the MIC [28]?
Answer: > 67.3 µM and > 100 µg/mL
